# In patent US12384780B2, “PARP1 inhibitors and uses thereof” (XinThera, Inc., priority 2022, dated 2025):
# Key:
# [1] = test system: MDA-MB-436 (mutated BRCA1) cells; assay: Cell growth inhibition assay (CellTiter-Glo), MDA-MB-436; format: cell-based; conditions: Homo sapiens, MDA-MB-436, 168 h, 500 cells/well, 7 days, CellTiter Glo 2.0; read-out: MDA-MB-436 pEC50 (converted)
# Experimental: (§1) Cell proliferation was measured through the cell viability assay using DLD-1 BRCA2(−/−) and parental isogenic pair and MDA-MB-436 (mutated BRCA1) cell lines. The CellTiter-Glo (CTG) based cell viability assay is designed to determine the number of viable cells in the culture because of compound effect, by quantifying ATP, which indicates the presence of metabolically active cells.
# (§2) DLD-1 BRCA2(−/−) and parental isogenic pair were cultured in RPMI 1640 supplemented with […] (FBS), and […] cells were cultured in DMEM supplemented with 10% FBS. Both were cultured at 37° C. with […]. Invention compounds were distributed to the 384 well plate (Corning, 3764) using Echo acoustic liquid handler to form a 1:3 serially diluted final concentration with top dose of 10 or 30 μM. The cells were seeded into the plate in the density of 50 cells/well (DLD-1 parental), 200 cells/well (DLD-1 BRCA2−/−), or 500 cells/well (MDA-MB-436). After a short spun, the cells were cultured in a well moisturized incubator at 37° C. with 5% CO2 for 7 days without disturbance. The cell viability was measured by CellTiter Glo 2.0 assay kit (Promega, G9243), and growth inhibition rate was calculated and plotted against final compound concentration, and the data were fitted in Xfit to generate IC50 values.
# DLD-1 BRCA2(−/−) cells = assay: Cell growth inhibition assay (CellTiter-Glo), DLD-1 BRCA2(−/−); format: cell-based; conditions: Homo sapiens, DLD-1, 168 h; 200 cells/well, 7 days, CellTiter Glo 2.0; read-out: DLD-1 BRCA2(−/−) pEC50 (converted)
# Experimental: as §1, §2
# PARP1 = target: T1, PARP1 (Homo sapiens, UniProt P09874); assay: Biochemical fluorescent polarization (FP) assay, displacement of PARPi-FL, PARP1; format: binding; conditions: 20 nM protein, 3 nM PARPi-FL, 4 h at room temperature; for IC50: read-out: FP PARP1 pIC50 (converted)
# T1 construct: made in house
# Experimental: (§3) Compounds were characterized using an assay measuring the displacement of a commercially available fluorescently labeled PARP 1/2 inhibitor (PARPi-FL, Tocris Biosciences, #6461) as exemplified in assays performed in WO2014/064149 and WO2021/013735A1. The assay was performed utilizing the following method: Compounds were dissolved in DMSO an Echo550 liquid handler was utilized to make serial dilations in the desired concentration range in Optiplate-384F plates. 100% DMSO was used for the high (with protein) and low (without protein) control samples. 20 nL of compound or DMSO alone was added to individual assay plate wells. PARP1 and PARP2 protein were expressed, purified, and diluted in assay buffer containing 50 mM Tris pH 8.0, 0.001% Triton X-100, 10 mM MgCl2, 150 mM NaCl to a final concentration of 20 nM. The PARPi-FL was then added at a final concentration of 3 nM. The assay plate was centrifuged at 1000 rpm for 1 min and incubated for 4 h at room temperature. […] [formula]
# PARP2 = target: T2, PARP2 (Homo sapiens, UniProt Q9UGN5); assay: Biochemical fluorescent polarization (FP) assay, displacement of PARPi-FL, PARP2; format: binding; conditions: 20 nM protein, 3 nM PARPi-FL, 4 h at room temperature; read-out: FP PARP2 pIC50 (converted)
# T2 construct: made in house
# Experimental: as §3
# T2 sequence (Q9UGN5 whole entry): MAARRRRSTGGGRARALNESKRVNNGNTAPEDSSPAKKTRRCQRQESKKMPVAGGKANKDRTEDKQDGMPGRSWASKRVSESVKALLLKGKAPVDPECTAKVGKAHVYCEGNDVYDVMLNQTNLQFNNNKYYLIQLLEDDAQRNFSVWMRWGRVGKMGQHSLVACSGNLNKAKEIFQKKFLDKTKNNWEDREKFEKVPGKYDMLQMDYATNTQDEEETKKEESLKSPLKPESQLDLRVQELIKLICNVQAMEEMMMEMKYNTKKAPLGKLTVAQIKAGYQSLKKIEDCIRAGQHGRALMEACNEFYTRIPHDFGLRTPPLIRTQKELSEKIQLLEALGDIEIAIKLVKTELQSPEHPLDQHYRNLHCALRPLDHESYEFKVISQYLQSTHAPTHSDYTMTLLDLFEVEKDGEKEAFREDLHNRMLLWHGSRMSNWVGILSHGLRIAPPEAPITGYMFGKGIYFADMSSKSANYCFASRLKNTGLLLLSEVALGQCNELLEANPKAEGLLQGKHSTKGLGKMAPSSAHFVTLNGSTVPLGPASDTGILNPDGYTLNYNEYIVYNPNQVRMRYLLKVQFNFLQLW
# T1 sequence (P09874 whole entry): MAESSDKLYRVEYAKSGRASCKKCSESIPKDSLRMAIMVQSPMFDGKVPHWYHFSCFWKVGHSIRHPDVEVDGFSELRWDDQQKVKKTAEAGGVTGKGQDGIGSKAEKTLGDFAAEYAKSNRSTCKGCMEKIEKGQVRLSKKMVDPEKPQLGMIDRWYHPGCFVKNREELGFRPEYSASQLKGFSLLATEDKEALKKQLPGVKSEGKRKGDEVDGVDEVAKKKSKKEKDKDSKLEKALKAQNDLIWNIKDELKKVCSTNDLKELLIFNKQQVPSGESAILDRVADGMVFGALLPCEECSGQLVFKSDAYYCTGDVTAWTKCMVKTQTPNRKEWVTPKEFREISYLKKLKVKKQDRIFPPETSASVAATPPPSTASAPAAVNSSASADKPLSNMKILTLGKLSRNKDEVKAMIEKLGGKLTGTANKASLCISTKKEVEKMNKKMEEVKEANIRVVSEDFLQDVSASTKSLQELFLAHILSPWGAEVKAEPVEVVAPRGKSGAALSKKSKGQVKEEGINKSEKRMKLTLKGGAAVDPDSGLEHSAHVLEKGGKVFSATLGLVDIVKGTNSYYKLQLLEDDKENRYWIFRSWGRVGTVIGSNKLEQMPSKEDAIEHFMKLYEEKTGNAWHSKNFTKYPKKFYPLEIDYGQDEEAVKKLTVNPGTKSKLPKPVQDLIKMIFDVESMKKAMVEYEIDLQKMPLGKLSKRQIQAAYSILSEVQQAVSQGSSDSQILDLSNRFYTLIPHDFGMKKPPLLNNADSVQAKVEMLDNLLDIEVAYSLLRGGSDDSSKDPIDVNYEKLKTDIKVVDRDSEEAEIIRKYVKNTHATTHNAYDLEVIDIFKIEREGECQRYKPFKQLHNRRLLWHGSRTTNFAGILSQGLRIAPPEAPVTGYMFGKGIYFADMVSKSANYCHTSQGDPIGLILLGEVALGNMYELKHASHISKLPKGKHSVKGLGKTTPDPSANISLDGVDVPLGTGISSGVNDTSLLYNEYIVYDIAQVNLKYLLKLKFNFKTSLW
EC50 [1],EC50 (DLD-1 BRCA2(−/−) cells),IC50 (PARP1),IC50 (PARP2),FP PARP1 pIC50 (PARP1),Structure (SMILES)
0.631 nM,0.794 nM,25.1 nM,12600 nM,,CCc1cc2ncc(CN3CCN(c4ccc(C#N)cc4C#N)CC3)cc2[nH]c1=O [Example 52]
0.794 nM,0.794 nM,6.31 nM,> 100000 nM,,N#Cc1ccc(N2CCN(Cc3cnc4cc(Cl)c(=O)[nH]c4c3)CC2)c(Cl)n1 [Example 77]
10 nM,10 nM,,2510 nM,8.5,"O=c1[nH]c2cc(CN3CCN(c4ccc(F)cn4)CC3)cnc2cc1C1CC1 [Example 16, 3-cyclopropyl-7-{[4-(5-fluoropyridin-2-yl)piperazin-1-yl]methyl}-1H-1,5-naphthyridin-2-one]"
7.94 nM,12.6 nM,3.98 nM,> 100000 nM,,"Cc1cc2ncc([C@H](C)N3CCN(c4ccc(C#N)cn4)CC3)cc2[nH]c1=O (single isomer, unassigned) [Example 32]"
5.01 nM,6.31 nM,12.6 nM,,,Cc1cc2ncc(CN3CCN(c4cc(F)c(F)cc4C#N)CC3)cc2[nH]c1=O [Example 53]
2 nM,5.01 nM,5.01 nM,> 100000 nM,,CCc1cc2ncc(CN3CCC(c4ccc(C#N)cn4)CC3)cc2[nH]c1=O [Example 64]
2.51 nM,3.16 nM,5.01 nM,> 100000 nM,,Cc1cc2ncc(CN3CCN(c4ccc(C#N)cc4F)CC3)cc2[nH]c1=O [Example 18]
5.01 nM,5.01 nM,63.1 nM,,,N#Cc1ccc(N2CCN(Cc3cnc4cc(Cl)c(=O)[nH]c4c3)CC2)c(F)c1 [Example 76]
0.794 nM,1 nM,6.31 nM,12600 nM,,CCc1cc2ncc(CN3CCN(c4ccc(F)cc4C#N)CC3)cc2[nH]c1=O [Example 40]
1.58 nM,2.51 nM,10 nM,3160 nM,,Cc1cc2ncc(CN3CCN(c4ccc(C#N)c(F)c4)CC3)cc2[nH]c1=O [Example 44]
39.8 nM,63.1 nM,15.8 nM,,,Cc1nc2c(F)c(F)c(CN3CCN(c4ccc(C#N)cn4)CC3)cc2[nH]c1=O [Example 72]
50.1 nM,79.4 nM,10 nM,> 100000 nM,,Cc1cc2ncc(CN3CCN(c4ccc(C#N)cn4)[C@H](C)C3)cc2[nH]c1=O [Example 24]
1 nM,1.26 nM,15.8 nM,,,N#Cc1ccc(N2CCN(Cc3cnc4cc(C(F)F)c(=O)[nH]c4c3)CC2)c(C(F)F)c1 [Example 80]
1 nM,1.26 nM,,,,CCc1cc2ncc(CN3CCN(c4ccc(C#N)cc4F)CC3)cc2[nH]c1=O [Example 45]
0.631 nM,0.631 nM,10 nM,,,N#Cc1ccc(N2CCN(Cc3cnc4cc(C(F)F)c(=O)[nH]c4c3)CC2)c(Cl)n1 [Example 81]
7.94 nM,2.51 nM,10 nM,,,"O=c1[nH]c2cc(CN3CCN(c4ccc(F)cn4)CC3)cnc2cc1Cl [Example 47, 3-chloro-7-{[4-(5-fluoropyridin-2-yl)piperazin-1-yl]methyl}-1H-1,5-naphthyridin-2-one]"
2.51 nM,3.98 nM,20 nM,,,Cc1cc2ncc(CN3CCN(c4ccc(Cl)cc4C#N)CC3)cc2[nH]c1=O [Example 51]
10 nM,10 nM,7.94 nM,,,"CCc1nc2cc(F)c(CN3CCN(c4ccc(C#N)cn4)CC3)cc2[nH]c1=O [Example 12, 6-{4-[(2-ethyl-7-fluoro-3-oxo-4H-quinoxalin-6-yl)methyl]piperazin-1-yl}pyridine-3-carbonitrile]"

EC50 [1],EC50 (DLD-1 BRCA2(−/−) cells),IC50 (PARP1),IC50 (PARP2),FP PARP1 pIC50 (PARP1),Structure (SMILES)
31.6 nM,25.1 nM,10 nM,,,Cc1nc2ccc(CN3CCN(c4ccc(C#N)cn4)CC3)c(F)c2[nH]c1=O [Example 70]
2 nM,2 nM,,,,CCc1cc2ncc(CN3CCN(c4ccc(F)cn4)CC3)cc2[nH]c1=O [Example 4]
15.8 nM,12.6 nM,10 nM,,,"Cc1cc2ccc(CN3CCN(c4ccc(C#N)cn4)CC3)c(F)c2[nH]c1=O [Example 71, 6-{4-[(8-fluoro-3-methyl-2-oxo-1H-quinolin-7-yl)methyl]piperazin-1-yl}pyridine-3-carbonitrile]"
2 nM,2.51 nM,,,,N#Cc1ccc(N2CCN(Cc3cnc4cc(C5CC5)c(=O)[nH]c4c3)CC2)nc1 [Example 17]
63.1 nM,100 nM,15.8 nM,,,CCc1cc2ncc(CN3CCN(c4ncc(F)cc4C#N)CC3)cc2[nH]c1=O [Example 56]
79.4 nM,63.1 nM,63.1 nM,,,CCc1cc2ncc(CN3CCN(c4ncc(C#N)cc4F)CC3)cc2[nH]c1=O [Example 54]
63.1 nM,63.1 nM,15.8 nM,,,"C#Cc1cc2ncc(CN3CCN(c4ccc(C#N)nc4)CC3)cc2[nH]c1=O [Example 1, 5-{4-[(7-ethynyl-6-oxo-5H-1,5-naphthyridin-3-yl)methyl]piperazin-1-yl}pyridine-2-carbonitrile]"
2.51 nM,3.16 nM,,,,CCc1cc2ncc(CN3CCN(c4cnc(Cl)cc4C#N)CC3)cc2[nH]c1=O [Example 65]
15.8 nM,20 nM,25.1 nM,,,Cc1nc2ccc(CN3CCN(c4ccc(C#N)nc4Cl)CC3)c(F)c2[nH]c1=O [Example 73]
6.31 nM,10 nM,10 nM,,,"N#Cc1ccc(N2CCN(Cc3ccc4cc(Cl)c(=O)[nH]c4c3F)CC2)nc1 [Example 83, 6-{4-[(3-chloro-8-fluoro-2-oxo-1H-quinolin-7-yl)methyl]piperazin-1-yl}pyridine-3-carbonitrile]"
31.6 nM,20 nM,15.8 nM,,,Cc1nc2ccc(CN3CCN(c4ccc(C#N)nc4F)CC3)c(F)c2[nH]c1=O [Example 74]
1.58 nM,2 nM,25.1 nM,,,Cc1cc2ncc(CN3CCN(c4ccc(C#N)cc4C#N)CC3)cc2[nH]c1=O [Example 50]
0.501 nM,0.631 nM,25.1 nM,,,Cc1cc(C#N)ccc1N1CCN(Cc2cnc3cc(C(F)F)c(=O)[nH]c3c2)CC1 [Example 75]
39.8 nM,100 nM,31.6 nM,,,"Cc1c(C(F)F)c2ncc(CN3CCN(c4ccc(C#N)cn4)CC3)cc2[nH]c1=O [Example 82, 6-(4-((8-(difluoromethyl)-7-methyl-6-oxo-5,6-dihydro-1,5-naphthyridin-3-yl)methyl)piperazin-1-yl)nicotinonitrile]"
1.58 nM,2 nM,10 nM,,,N#Cc1ccc(N2CCN(Cc3cnc4cc(C5CC5)c(=O)[nH]c4c3)CC2)c(F)c1 [Example 46]
1.26 nM,1.58 nM,63.1 nM,,,N#Cc1ccc(N2CCN(Cc3cnc4cc(C(F)F)c(=O)[nH]c4c3)CC2)c(F)n1 [Example 62]
12.6 nM,10 nM,10 nM,,,"Cc1nc2c(F)cc(CN3CCN(c4ccc(C#N)cn4)CC3)cc2[nH]c1=O [Example 49, 6-{4-[(8-fluoro-2-methyl-3-oxo-4H-quinoxalin-6-yl)methyl]piperazin-1-yl}pyridine-3-carbonitrile]"
